This note sets out measurements from patent US8058305B2, “Pyrrolidine derivatives as prostaglandin modulators” (Merck Serono SA, priority 2001, dated 2011).

Assay [1] has as its target T1, h-EP2 (Homo sapiens, UniProt P43116).
T1 construct: expressed in transfected cells; host or cells: HEK293-EBNA
The assay is described as follows: Prostaglandin EP2 receptor binding assay (3H-PGE2, SPA). To be noted: EP2 receptor membranes, 20 nM 3H-PGE2, pH 6.0, 2 hrs at room temperature. On the procedure:
Compounds of the invention were tested in an EP2 receptor binding assay of the following protocol. As referred to herein, the term a “standard EP2 receptor binding assay” designates the following protocol which allows the determination of the affinity of the test compounds for the EP2 receptor

The target of assay [2] is T1, h-EP2. The assay is described as follows: EP2 total cAMP assay. In kind it is cell-based. To be noted: HEK293-EBNA cells transfected with pCEP4-hEP2, 1 hour at 37° C. On the procedure:
Compounds of the invention were tested in a total cAMP assay as follows. HEK293-EBNA cells transfected with pCEP4-hEP2 receptors were seeded in 96 well opaque plate (Costar #3917) at 4×10^4 cells per well in 100 μl of culture medium (D-MEM/F12 supplemented with 10% FBS, […] L-glutamine, and 250 μg/ml of hygromycin; all from GibcoBRL) and incubated at 37° C. After overnight incubation, the medium was removed from each well and replaced with 45 μl of assay medium consisted of phenol red free D-MEM/F-12, 0.1% BSA (GibcoBRL) and 0.1 mM3-isobutyl-1-methyl-xanthine (Sigma). After 15 minutes of incubation at 37° C., 16-16-dimethyl PGE-2 or compounds at desired concentrations in 20 μl of assay medium were added to cells and further incubated at 37° C. for 1 hour. Total cAMP (intra- and extra-cellular) was measured by using a cAMP-screen ELISA System (Tropix, #CS1000).

Assay [3] deals with h-EP4 (Homo sapiens, UniProt P35408). The assay is described as follows: EP4 receptor binding assay (3H-PGE2, SPA). To be noted: EP4 receptor membranes, 20 nM 3H-PGE2, pH 6.0, 2 hrs at room temperature. On the procedure: Compounds of the invention were tested in an EP4 receptor binding assay of the following protocol which allows the determination of the affinity of the test compounds for the EP4 receptor.
Chain of h-EP4 (P35408 whole entry): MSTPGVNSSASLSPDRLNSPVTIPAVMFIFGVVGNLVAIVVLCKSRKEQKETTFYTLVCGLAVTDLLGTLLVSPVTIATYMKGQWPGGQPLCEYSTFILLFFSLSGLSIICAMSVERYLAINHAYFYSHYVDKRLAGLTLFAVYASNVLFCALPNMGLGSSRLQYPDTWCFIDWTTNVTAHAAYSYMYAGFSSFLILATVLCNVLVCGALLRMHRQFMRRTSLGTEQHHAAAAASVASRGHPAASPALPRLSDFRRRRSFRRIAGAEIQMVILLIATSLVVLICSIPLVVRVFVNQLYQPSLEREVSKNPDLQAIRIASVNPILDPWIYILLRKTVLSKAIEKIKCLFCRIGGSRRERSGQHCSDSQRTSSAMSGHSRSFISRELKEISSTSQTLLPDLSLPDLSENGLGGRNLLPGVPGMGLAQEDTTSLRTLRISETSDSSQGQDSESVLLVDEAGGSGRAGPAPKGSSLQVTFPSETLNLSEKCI

T1 sequence (P43116 whole entry): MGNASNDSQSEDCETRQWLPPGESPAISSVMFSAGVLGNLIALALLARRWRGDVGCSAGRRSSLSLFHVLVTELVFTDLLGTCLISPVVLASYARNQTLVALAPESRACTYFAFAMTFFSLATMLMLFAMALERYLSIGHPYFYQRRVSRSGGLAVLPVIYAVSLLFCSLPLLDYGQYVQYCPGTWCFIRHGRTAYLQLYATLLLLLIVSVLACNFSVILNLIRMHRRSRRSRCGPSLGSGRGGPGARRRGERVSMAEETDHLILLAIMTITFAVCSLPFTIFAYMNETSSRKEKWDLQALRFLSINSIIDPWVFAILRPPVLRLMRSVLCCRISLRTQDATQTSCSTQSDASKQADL

The molecule `CCCCC[C@@H](O)CCCN1CC[C@@H](Cl)C1C/C=C\CCCC(=O)O` (stereo in doubt) [Example 1, (5Z)7-[(2R,3R)-3-Chloro-1-(4-hydroxynonyl)-pyrrolidin-2-yl]-hept-5-enoic acid] gave a Ki in assay [1] of 5.6 µM. In assay [2], this molecule returned an EC50 of 0.048 µM.
As to `CCCCC1(C(O)CCCN2CC[C@@H](Cl)[C@@H]2CCc2ccc(C(=O)O)cc2)CCC1` (stereo in doubt) [Example 11, 4-(2-{1-[4-(1-butylcyclobutyl)-4-hydroxybutyl]-3-chloropyrrolidin-2-yl}ethyl)benzoic acid], the inhibition constant (Ki) in assay [1] is 3.5 µM. Besides, in assay [2], a half-maximal response (EC50) required 0.25 µM.
`Cc1cccc(CC(O)CCN2CCC(=O)[C@@H]2C/C=C\CCCC(=O)O)c1` (stereo partly drawn) [Example 13, (5Z)-7-{(2S)-1-[3-hydroxy-4-(3-methylphenyl)butyl]-3-oxopyrrolidin-2-yl}hept-5-enoic acid]: the Ki was determined as 0.005 µM in assay [3] and 10 µM in assay [1]. Moreover, in assay [2], a half-maximal effect (EC50) was put at 0.37 µM.
On to “(5Z)-7-{(trans-2,3)-3-Chloro-1-[(4S and 4 R)-hydroxy-4-(1-butylcyclobutyl)butyl]pyrrolidin-2-yl}hept-5-enoic acid [Example 15]”, for which the Ki stood at 0.156 µM in assay [3] and 11 µM in assay [1]. Moreover, the midpoint of the response in assay [2], the EC50, lay at 8.5 µM.
